Source: US9464064B2, “HCV helicase inhibitors and methods of use thereof” (University of Kansas, priority 2011, dated 2016)
Positions of bridges follow the written chain, without caps; N, C: chain ends. Non-standard residues stand in square brackets, D forms with d. Residues, ends and D or L forms follow the SMILES beside them. ξ: configuration not given here. *: point of attachment. ξNMePhe(4-NMe2) = CNC(Cc1ccc(N(C)C)cc1)C(=O)O; Picolinoyl(3-OH) = O=C(c1ncccc1O)*; ξPip(4-oxo) = O=C1CCNC(C(=O)O)C1; Phg = N[CH](C(=O)O)c1ccccc1; Cbz = O=C(OCc1ccccc1)*; Abu = CC[CH](N)C(=O)O; CH2Cl = ClC*

Biological target: T1, HCV NS3 helicase NS3h_1b(con1) (Hepatitis C virus genotype 1b, UniProt Q9WMX2)
T1 construct: truncated C-terminally His-tagged NS3 proteins lacking the N-terminal protease, called NS3h; His-tag (C); made in house
T1 sequence (Q9WMX2 1192-1657): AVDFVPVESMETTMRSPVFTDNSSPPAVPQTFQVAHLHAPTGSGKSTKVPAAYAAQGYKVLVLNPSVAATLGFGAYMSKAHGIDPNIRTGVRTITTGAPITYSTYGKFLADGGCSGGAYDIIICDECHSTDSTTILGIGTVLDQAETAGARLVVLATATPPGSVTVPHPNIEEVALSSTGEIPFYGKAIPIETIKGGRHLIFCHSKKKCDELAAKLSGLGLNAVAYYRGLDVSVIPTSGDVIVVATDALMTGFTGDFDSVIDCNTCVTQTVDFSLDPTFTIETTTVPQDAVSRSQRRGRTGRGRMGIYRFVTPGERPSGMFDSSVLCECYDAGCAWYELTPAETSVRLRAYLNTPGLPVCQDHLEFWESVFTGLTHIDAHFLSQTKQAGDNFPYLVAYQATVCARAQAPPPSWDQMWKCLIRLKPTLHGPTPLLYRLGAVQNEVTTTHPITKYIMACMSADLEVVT
Test: MBHA screen of NCI mechanistic set library at 20 μM (percent inhibition, compound interference)
Type: biochemical
Settings: compounds at 20 μM; for Inh. (%) (Inhibition): calculated from Equation 1
In short: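 Molecular beacon-based DNA unwinding assay; compounds screened at 20 μM in triplicate, with DMSO-only negative and 500 nM dT20 positive controls. Fluorescence (ex 643/em 670 nm) was read before and 30 min after adding ATP to 1 mM. Percent inhibition came from the change relative to DMSO controls; interference from pre-ATP fluorescence versus DMSO controls.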

[1] = MBHA with DNA substrate, assay interference calculated with Equation 2
[2] = assay interference calculated with Equation 2 (fluorescence vs DMSO-only controls before ATP)

| Compound | Int.* (Ratio) (Interference) [1] | Inh. (%) (Inhibition) (MBHA with DNA substrate) | Inh. (%) (Inhibition) (MBHA with a DNA substrate) | Int.* (Ratio) (Interference) [2] |
| --- | --- | --- | --- | --- |
| N#CC1(C#N)C2C=CC(c3coc4cccc2c34)C1(C#N)C#N (centres unmarked) [Compound 629301] | 0.91 Ratio | 0.8% | – | – |
| CNc1nc(N(C)C)nc(N(C)C)n1 [Compound 118742] | – | – | 10.6% | 1.01 Ratio |
| C=C1C(=O)OC2C1CC1OC2C(C)CCC/C(C)=C\CCC1(C)O (centres unmarked) [Compound 282752] | – | – | −5.5% | 1.00 Ratio |
| NC1(C(=O)O)CCCC1 [Compound 1026] | – | – | 9.0% | 0.90 Ratio |
| NP(=O)(Oc1c2occc2cc2ccc(=O)oc12)N(CCCl)CCCl (centres unmarked) [Compound 345081] | – | – | 9.2% | 0.95 Ratio |
| CCC[CH2][Sn]([CH2]CCC)([CH2]CCC)[O]c1cc(Cl)c(Cl)cc1Cl [Compound 164914] | – | – | 11.5% | 0.91 Ratio |
| C=C1C(C)C2C(Cc3ccccc3)NC(=O)C23C(OC(C)=O)/C=C/C(C)(O)CC(C)C/C=C/C3C1O (centres unmarked) [Compound 305222] | 1.03 Ratio | 12.2% | – | – |
| CC1=C2C(=CC(C)(C)[C@@H]2O)C(=O)[C@](C)(O)C12CC2 [Compound 400978] | 1.10 Ratio | 17.9% | – | – |
| CCCCCCCCCCCCCCCCCCOP(=O)([O-])OCC[N+](C)(C)C [Compound 282880] | 0.85 Ratio | 5.8% | – | – |
| CCCC/C=C/C=C/C=C/CCCCCCCC(=O)OCC(COC(=O)CCCCCCC/C=C/C1C=CC(CCCC)C(C(=O)O)C1C(=O)O)OC(=O)CCCCCCC/C=C/C=C/C=C/CCCC.OCCNCO (centres unmarked) [Compound 643834] | 0.88 Ratio | −1.3% | – | – |
| COc1cccc2c1cc([N+](=O)[O-])c1c(C(=O)O)cc3c(c12)OCO3 [Compound 11926] | 1.14 Ratio | −12.8% | – | – |
| CC(C)(O)CCC(O)C(C)(O)C1CCC2(O)C3=CC(=O)C4(O)CC(O)C(O)CC4(C)C3CCC12C.CC(C)(O)CCC(O)C(C)(O)C1CCC2(O)C3=CC(=O)C4CC(O)C(O)CC4(C)C3CCC12C (centres unmarked) [Compound 115493] | – | – | 7.3% | 0.94 Ratio |
| CC(CN1CC(=O)NC(=O)C1)N1CC(=O)NC(=O)C1 (centres unmarked) [Compound 129943] | – | – | −5.2% | 1.13 Ratio |
| CC1(C)NC(=O)N(CCCCCCN2C(=O)NC(C)(C)C2=O)C1=O [Compound 376791] | 1.08 Ratio | −7.3% | – | – |
| N#CC(NCc1cccc(CNC(C#N)c2ccccc2)c1)c1ccccc1 (centres unmarked) [Compound 681730] | 0.88 Ratio | −2.0% | – | – |
| NC(=O)c1c([N+](=O)[O-])cc(C(F)(F)F)cc1[N+](=O)[O-] [Compound 622640] | 1.10 Ratio | −13.4% | – | – |
| C[Si](C)(CN)CN.[Cl][Pt][Cl] [Compound 603577] | 0.93 Ratio | 13.5% | – | – |
| CCOC(=O)CNC(=O)NC12CC3CC(CC(C3)C1)C2 [Compound 208914] | – | – | −4.1% | 1.09 Ratio |
| CO[C@@H](/C(C)=C/C=C/C(C)=C/c1coc(C)n1)[C@@H](C)[C@@H]1C[C@H](O)[C@@]2(C)O[C@@H]2/C=C/[C@@H](C)[C@H]2C[C@H](CC(=O)O2)C[C@@H]2O[C@H]2C(=O)O1 [Compound 332598] | 0.98 Ratio | −11.7% | – | – |
| CC1=C\C(O)CC(=O)Cc2nc(co2)C(=O)N2CCC=C2C(=O)OC(C(C)C)C(C)/C=C/C(=O)NC/C=C\1.CCC1NC(=O)C(NC(=O)c2ncccc2O)C(C)OC(=O)C(c2ccccc2)NC(=O)C2CC(=O)CCN2C(=O)C(Cc2ccc(N(C)C)cc2)N(C)C(=O)C2CCCN2C1=O (centres unmarked) [Compound 125176] ({Picolinoyl(3-OH)}-T[Abu]P[ξNMePhe(4-NMe2)][ξPip(4-oxo)][Phg]; ester 1-C; configuration not given here) | – | – | −20.2% | 0.90 Ratio |
| CN(C)c1ccc(/C=C/C(=O)[O-])cc1.CN(C)c1ccc(/C=C/C(=O)[O-])cc1.[Cu+2] [Compound 643351] | – | – | −20.4% | 0.89 Ratio |
| N#CC(=S)Nc1ccc(F)cc1 [Compound 369317] | 0.95 Ratio | 2.8% | – | – |
| CC(C)(C)[Si](C)(C)OCC1CCC(n2cnc3c(N)ncnc32)O1 (centres unmarked) [Compound 616355] | 1.01 Ratio | −12.6% | – | – |
| CC[C@@]1(O)C[C@H](O[C@H]2C[C@H](N(C)C)[C@H](O[C@H]3C[C@@H]4O[C@H]5CC(=O)[C@H](C)O[C@H]5O[C@@H]4[C@H](C)O3)[C@H](C)O2)c2c(cc3c(c2O)C(=O)c2c(O)ccc(O)c2C3=O)[C@H]1C(=O)OC [Compound 243023] | 0.46 Ratio | 24.2% | – | – |
| NC(=O)C1=C[C@H]2[C@H]3C=C[C@@]2(O)C(=O)O[C@@H]3O1 [Compound 357683] | 0.99 Ratio | 2.7% | – | – |

Next, values leading:

| Int.* (Ratio) (Interference) [1] | Inh. (%) (Inhibition) (MBHA with DNA substrate) | Inh. (%) (Inhibition) (MBHA with a DNA substrate) | Int.* (Ratio) (Interference) [2] | Compound |
| --- | --- | --- | --- | --- |
| 0.91 Ratio | 26.6% | – | – | CC(C)c1ccc2nc3ccc(C(=O)NCCN(C)C)cn3c(=O)c2c1 [Compound 600305] |
| – | – | 7.2% | 1.01 Ratio | CN1CCCC2C(c3ccccc3)C(C3=NCCCC3)C(c3ccccc3)CC21.Cl (centres unmarked) [Compound 109444] |
| 0.97 Ratio | −0.5% | – | – | O=C1c2cccc(O)c2C(=O)c2c(O)cccc21 [Compound 7210] |
| 0.94 Ratio | 0.4% | – | – | C=C1CC(Cn2cc(Br)c(=O)[nH]c2=O)(c2ccc(-c3ccccc3)cc2)OC1=O (centres unmarked) [Compound 668260] |
| 0.84 Ratio | 20.7% | – | – | CC1(C)CC(Nc2ccc(Nc3ccccc3)cc2)CC(C)(C)N1 [Compound 632536] |
| – | – | 7.6% | 0.86 Ratio | Cc1ccc([S+](c2ccc(C)cc2)c2ccc(C)cc2)cc1 [Compound 157930] |
| 0.93 Ratio | 1.5% | – | – | Cc1ccc(C2NC(=O)c3ccccc3N2)s1 (centres unmarked) [Compound 175634] |
| 1.02 Ratio | 23.1% | – | – | COc1cc(C[C@H]2c3cc(OC)c(OC)cc3CCN2C)c(Oc2cc3c(cc2OC)-c2c(OC)c(OC)cc4c2[C@H](C3)N(C)CC4)cc1OC [Compound 68075] |
| 1.04 Ratio | 18.7% | – | – | O=C(C[n+]1ccc2ccccc2c1)c1ccc2ccc3ccccc3c2c1 [Compound 35489] |
| 0.96 Ratio | −16.1% | – | – | CC[C@]1(O)C[C@H]2CN(CCc3c([nH]c4ccccc34)[C@@](C(=O)OC)(c3cc4c(cc3OC)N(C=O)[C@H]3[C@@](O)(C(=O)OC)[C@H](OC(C)=O)[C@]5(CC)C=CCN6CC[C@]43[C@@H]65)C2)C1 [Compound 67574] |
| 1.06 Ratio | 12.4% | – | – | Nc1nc(N)c(-c2cccc(C(F)(F)F)c2)c(Cc2cccc(C(F)(F)F)c2)n1 [Compound 71669] |
| – | – | 9.8% | 0.96 Ratio | CC(Cc1ccccc1)NC1=NCCO1 (centres unmarked) [Compound 664298] |
| 0.93 Ratio | −1.1% | – | – | COC(=O)c1ccc(=O)c2nc3/c(=C/O)c(O)cc(=O)c3[nH]c12 [Compound 106995] |
| 0.91 Ratio | −1.6% | – | – | CCOC(=O)Nc1cc2c(c(N)n1)N=C(c1ccccc1)CN2 [Compound 330770] |
| – | – | −5.2% | 0.96 Ratio | Cc1ccc(Cl)c2c(N=Nc3ccccc3[N+](=O)[O-])c(O)[nH]c12 [Compound 118735] |
| – | – | 10.7% | 0.27 Ratio | COc1ccc2c(NCCCCCCNc3c4ccccc4nc4cc(OC)ccc34)c3ccccc3nc2c1 [Compound 260610] |
| 0.65 Ratio | 70.0% | – | – | C(=N\NC1=NCCN1)/c1c2ccccc2c(/C=N/NC2=NCCN2)c2ccccc12 [Compound 337766] |
| 1.09 Ratio | 1.4% | – | – | CC(C)CC(NC(=O)OCc1ccccc1)C(=O)NC(Cc1ccccc1)C(=O)CCl (stereo not drawn) [Compound 173904] (Cbz-Leu-Phe-CH2Cl; configuration not given here) |
| 0.96 Ratio | 17.1% | – | – | COc1ccccc1[S+]([O-])Nc1ccccc1 (centres unmarked) [Compound 676561] |
| 1.14 Ratio | −1.2% | – | – | CC1=Nc2ccccc2/C1=C\c1c(C)[nH]c2ccccc12 [Compound 76747] |
| 0.86 Ratio | 20.2% | – | – | Cc1nc(N)nc(N)c1-c1ccc(Cl)c(Cl)c1 [Compound 7364] |
| 1.14 Ratio | 2.6% | – | – | NC1=C(Br)C(=O)c2ncccc2C1=O [Compound 105808] |
| 0.96 Ratio | −7.3% | – | – | COc1ccc(-c2cc(-c3ccccc3)nc3c2CC(=O)Nc2ccccc2-3)cc1OC [Compound 682769] |
| 1.12 Ratio | −7.2% | – | – | COc1cccc(/C=N\NC(=O)C(C)SC(C)C(=O)N/N=C/c2cccc(OC)c2)c1 (centres unmarked) [Compound 56737] |
